Values of other authors, collected in article PMC10894724 (Chemistry (Weinheim an der Bergstrasse, Germany), 2023).

Tested on: P. falciparum Dd2 strain

In the case of `CCCCCC(=O)N[C@H](C(=O)N[C@@H](CCS(C)(=O)=O)C(=O)N[C@@H](CC(C)C)C(=O)[C@@]1(C)CO1)C(C)C` [carmaphycin B], the “selectivity for asexual blood stage P. falciparum cells over human HepG2 cells” value is given as 3 fold.
